# Results from PubChem BioAssay (NCI).
#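 A five-concentration, 48-hour dose response in 96-well plates underlies each endpoint, interpolated linearly between surrounding concentrations. The concentration for 50% growth inhibition is given as GI50. The concentration for full growth arrest is given as TGI.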
# How the values were obtained:
# Test in all cases: NCI anticancer screen, dose series, 48 h
# [1] = test system: OVCAR-3 ovarian
# [2] = test system: A498 renal
# [3] = test system: SNB-19 CNS
# [4] = test system: LOX IMVI melanoma
# [5] = test system: OVCAR-5 ovarian
# [6] = test system: OVCAR-4 ovarian
# [7] = test system: EKVX NSCLC
# [8] = test system: MALME-3M melanoma
# [9] = test system: HS 578T breast
# [10] = test system: CCRF-CEM leukemia
# [11] = test system: PC-3 prostate
# [12] = test system: OVCAR-8 ovarian
# [13] = test system: A549 NSCLC
# [14] = test system: HL-60(TB) leukemia
# [15] = test system: UACC-62 melanoma
# [16] = test system: NCI-H522 lung
# [17] = test system: KM12 colon
# [18] = test system: RPMI-8226 leukemia
# [19] = test system: NCI/ADR-RES ovarian
# [20] = test system: HOP-62 NSCLC
# [21] = test system: SK-MEL-5 melanoma
# [22] = test system: U251 CNS
# [23] = test system: UACC-257 melanoma
# [24] = test system: SR leukemia
# [25] = test system: NCI-H226 lung
# [26] = test system: SF-268 CNS
# [27] = test system: BT-549 breast
# [28] = test system: HCT-116 colon
# [29] = test system: NCI-H23 lung
# [30] = test system: ACHN renal
# [31] = test system: CAKI-1 renal
# [32] = test system: SK-OV-3 ovarian
# [33] = test system: HCT-15 colon
# [34] = test system: NCI-H460 lung
# [35] = test system: SW-620 colon
# [36] = test system: SNB-75 CNS
# [37] = test system: 786-0 renal
# [38] = test system: SK-MEL-28 melanoma
# [39] = test system: MDA-MB-231 breast
# [40] = test system: SF-295 CNS
# [41] = test system: RXF 393 renal
# [42] = test system: DU-145 prostate
# [43] = test system: MDA-MB-435
# [44] = test system: COLO 205 colon
# [45] = test system: IGROV1 ovarian
# [46] = test system: HOP-92 NSCLC
# [47] = test system: SF-539 CNS
# [48] = test system: SN12C renal
# [49] = test system: MCF7 breast
# [50] = test system: M14 melanoma
# [51] = test system: SK-MEL-2 melanoma
# [52] = test system: K-562 leukemia
# [53] = test system: HT29 colon
# [54] = test system: TK-10 renal
compound,measurement,setting,value
O=S(=O)(Nc1ccc(-c2nc(-c3cccc(O)c3)c(-c3ccnc(Br)c3)[nH]2)cc1)c1ccccc1,GI50,[1],2.07 µM
same,TGI,[1],4.82 µM
same,GI50,[2],0.364 µM
same,TGI,[2],3.67 µM
same,GI50,[3],3.32 µM
same,TGI,[3],15.5 µM
same,GI50,[4],1.74 µM
same,TGI,[4],3.29 µM
same,GI50,[5],4.34 µM
same,TGI,[5],22.7 µM
same,GI50,[6],3.09 µM
same,TGI,[6],15.1 µM
same,GI50,[7],2.55 µM
same,TGI,[7],8.09 µM
same,GI50,[8],2.1 µM
same,TGI,[8],6.89 µM
same,GI50,[9],1.5 µM
same,TGI,[9],4.39 µM
same,GI50,[10],1.91 µM
same,TGI,[10],> 100 µM
same,GI50,[11],2.12 µM
same,TGI,[11],6.82 µM
same,GI50,[12],2.84 µM
same,TGI,[12],9.74 µM
same,GI50,[13],3 µM
same,TGI,[13],33.1 µM
same,GI50,[14],2.44 µM
same,TGI,[14],6.46 µM
same,GI50,[15],1.91 µM
same,TGI,[15],4.97 µM
same,GI50,[16],2.48 µM
same,TGI,[16],9.95 µM
same,GI50,[17],2.32 µM
same,TGI,[17],5.99 µM
same,GI50,[18],2.35 µM
same,TGI,[18],6.63 µM
same,GI50,[19],3.04 µM
same,TGI,[19],32 µM
same,GI50,[20],2.42 µM
same,TGI,[20],6.43 µM
same,GI50,[21],2.4 µM
same,TGI,[21],5.82 µM
same,GI50,[22],2.71 µM
same,TGI,[22],10.8 µM
same,GI50,[23],2.53 µM
same,TGI,[23],7.15 µM
same,GI50,[24],2.29 µM
same,TGI,[24],> 100 µM
same,GI50,[25],2.25 µM
same,TGI,[25],7.27 µM
same,GI50,[26],3.18 µM
same,TGI,[26],13.7 µM
same,GI50,[27],2.49 µM
same,TGI,[27],6.76 µM
same,GI50,[28],2.43 µM
same,TGI,[28],7.16 µM
same,GI50,[29],2.18 µM
same,TGI,[29],6.11 µM
same,GI50,[30],2.55 µM
same,TGI,[30],6.96 µM
same,GI50,[31],2.15 µM
same,TGI,[31],7.51 µM
same,GI50,[32],2.76 µM
same,TGI,[32],7.34 µM
same,GI50,[33],1.97 µM
same,TGI,[33],4.76 µM
same,GI50,[34],2.14 µM
same,TGI,[34],4.71 µM
same,GI50,[35],2.84 µM
same,TGI,[35],10.6 µM
same,GI50,[36],1.3 µM
same,TGI,[36],7.18 µM
same,GI50,[37],2.51 µM
same,TGI,[37],7.48 µM
same,GI50,[38],2.86 µM
same,TGI,[38],9.36 µM
same,GI50,[39],2.71 µM
same,TGI,[39],11.7 µM
same,GI50,[40],1.9 µM
same,TGI,[40],4.25 µM
same,GI50,[41],1.93 µM
same,TGI,[41],4.36 µM
same,GI50,[42],3.24 µM
same,TGI,[42],10.9 µM
same,GI50,[43],2.2 µM
same,TGI,[43],6.54 µM
same,GI50,[44],2.42 µM
same,TGI,[44],6.81 µM
same,GI50,[45],2.88 µM
same,TGI,[45],11.3 µM
same,GI50,[46],1.69 µM
same,TGI,[46],4.9 µM
same,GI50,[47],2.01 µM
same,TGI,[47],4.75 µM
same,GI50,[48],2.91 µM
same,TGI,[48],13.2 µM
same,GI50,[49],2.3 µM
same,TGI,[49],7.3 µM
same,GI50,[50],2.5 µM
same,TGI,[50],8.55 µM
same,GI50,[51],2.41 µM
same,TGI,[51],6.21 µM
same,GI50,[52],2.27 µM
same,TGI,[52],> 100 µM
same,GI50,[53],3.17 µM
same,TGI,[53],18.3 µM
same,GI50,[54],3.04 µM
same,TGI,[54],9.95 µM
